Data on 21 compounds can be found in patent publication US9216977B2 (The University of North Carolina at Chapel Hill, priority 2009, dated 2015).

The subject of data set [1] is A549. The experiment in a line: in vitro screen against human tumor cell line A549 (lung), GI50. Type of data set: cell-based. The following applies: read-out: GI50 A549.
Data set [2] has as its system DU145. Description: in vitro screen against human tumor cell line DU-145 (prostate), GI50. In kind it is cell-based. Particulars: read-out: GI50 DU145.
Data set [3] has as its system KB. The experiment in a line: in vitro screen against human tumor cell line KB (nasopharyngeal), GI50. Type of data set: cell-based. Particulars: read-out: GI50 KB.
The subject of data set [4] is KBvin. The experiment in a line: in vitro screen against KBvin cell line, GI50. Type of data set: cell-based. Particulars: Homo sapiens.
Data set [5] has as its system panel of cancer cell lines including A549 (lung), DU-145 (prostate), KB (nasopharyngeal), and HCT-8 (colon).
Data set [6] has as its system HCT-8. Description: in vitro screen against human tumor cell line HCT-8 (colon), GI50. In kind it is cell-based. Particulars: Homo sapiens, read-out: GI50 HCT-8.
The test system of data set [7] is panel of cancer cell lines including A549 (lung), DU-145 (prostate), KB (nasopharyngeal), and HCT-8 (colon). Description: cells. The following applies: Homo sapiens, read-out: average GI50.
In data set [8] the test system is SKBR. Description: in vitro screen against cancer cell line SKBR (breast), GI50. In kind it is cell-based. The following applies: Example 3, Table 1.
Where [9] appears, read: Homo sapiens, A549, Example 2, Table 3, 13-aza-cryptopleurines.
The mark [10] stands for this setting: Homo sapiens, DU-145, Example 2, Table 3, 13-aza-cryptopleurines.
Setting [11] is: Homo sapiens, KB, Example 2, Table 3, 13-aza-cryptopleurines.
The mark [12] stands for this setting: Table 3, cells marked (KBvin) in the HCT-8 column.
The mark [13] stands for this setting: Example 2, Table 4, 12-aza-cryptopleurines.
The mark [14] stands for this setting: Homo sapiens, A549, Example 3, Table 1.
The mark [15] stands for this setting: Homo sapiens, DU-145, Example 3, Table 1.
Setting [16] is: Homo sapiens, KB, Example 3, Table 1.
The mark [17] stands for this setting: HCT-8, Example 2, Table 3, 13-aza-cryptopleurines.
The mark [18] stands for this setting: Homo sapiens, A549, Example 2, Table 4, 12-aza-cryptopleurines.
Setting [19] is: Homo sapiens, DU-145, Example 2, Table 4, 12-aza-cryptopleurines.
Where [20] appears, read: Homo sapiens, KB, Example 2, Table 4, 12-aza-cryptopleurines.
Setting [21] is: HCT-8, Example 2, Table 4, 12-aza-cryptopleurines.

Where two headings read alike, the source gives them in different places.

In turn, `COc1ccc2c3c(c4cc(OC)c(OC)cc4c2c1)CC1CN(Cc2ccccc2)CN1C3` (stereo in doubt) [Compound 3j, (R)-12-aza-12N-benzyl-antofine] showed a melting point of 95 to 97 °C. Besides, the GI50 in data set [1] (Homo sapiens, A549, Example 2, Table 2, 12-aza-antofines) is 2680 nM. The 50% growth inhibitory concentration (GI50) in data set [2] (Homo sapiens, DU-145, Example 2, Table 2, 12-aza-antofines) came out at 4620 nM. Moreover, the GI50 in [3] (Homo sapiens, KB, Example 2, Table 2, 12-aza-antofines) amounted to 3410 nM. In addition, halving of growth in data set [4] (Table 2, cells marked (KBvin) in the HCT-8 column) (GI50) required 1870 nM.
`COc1ccc2c3c(c4cc(OC)c(OC)cc4c2c1)CC1CN(CC(C)C)CCN1C3` (stereo in doubt) [Compound 8m, (R)-13-aza-13N-isobutyl-cryptopleurine] displayed a melting point of 175 to 177 °C. Besides, the concentration for 50% growth inhibition (GI50) in [1] (setting [9]) turned out to be 12900 nM. Moreover, the GI50 in [2] (setting [10]) was 12200 nM. In addition, the concentration for 50% growth inhibition (GI50) in [3] (setting [11]) was found to be 11200 nM. In data set [4] (setting [12]), this compound had a GI50 of 9960 nM.
`COc1ccc2c3c(c4cc(OC)c(OC)cc4c2c1)CC1CN(Cc2ccccc2)CCN1C3` (stereo in doubt) [Compound 8n, (R)-13-aza-13N-benzyl-cryptopleurine] displayed a melting point of 86 to 88 °C. Besides, the GI50 in [1] (setting [9]) was 16400 nM. Besides, in data set [2] (setting [10]), the 50% growth inhibitory concentration (GI50) worked out at 11900 nM. The 50% growth inhibitory concentration (GI50) in data set [3] (setting [11]) came out at 12100 nM. In addition, the concentration for 50% growth inhibition (GI50) in data set [4] (setting [12]) came out at 7640 nM.
Regarding `COc1ccc2c3c(c4cc(OC)c(OC)cc4c2c1)CC1CCN(CC(C)C)CN1C3` (stereo in doubt) [Compound 11g, (R)-12-aza-12N-isobutyl-cryptopleurine], the melting point was in the range of 175 to 177 °C. The GI50 in [1] (setting [13]) came out at 5110 nM. In addition, the 50% growth inhibitory concentration (GI50) in data set [2] (setting [13]) came out at 1660 nM. In addition, the GI50 in data set [3] (setting [13]) was determined as 1450 nM. This compound also showed a 50% growth inhibitory concentration (GI50) in [4] (Table 4, cell marked (KBvin) in the HCT-8 column) of 7320 nM.
With `COc1ccc2c3c(c4cc(OC)c(OC)cc4c2c1)C[C@H]1CC(=O)CN1C3` [Compound 8, (S)-12-oxo-antofine], the concentration for 50% growth inhibition (GI50) in data set [1] (setting [14]) was 290 nM; in data set [2] (setting [15]), 710 nM; in [3] (setting [16]), 500 nM; in data set [4] (KBVIN, Example 3, Table 1), 430 nM. In data set [5], the “range of cytotoxicity / anticancer activity in words” value was “middle nM to low μM range”.
Regarding `COC(=O)CN1CCN2Cc3c(c4cc(OC)c(OC)cc4c4cc(OC)ccc34)C[C@H]2C1` [Compound 8f, (S)-13-aza-13N-methoxycarbonylmethyl-cryptopleurine], the melting point lay within 111 to 113 °C. Further, in data set [1] (setting [9]), the 50% growth inhibitory concentration (GI50) was 14700 nM. Besides, the 50% growth inhibitory concentration (GI50) in [2] (setting [10]) was determined as 20800 nM. The GI50 in data set [3] (setting [11]) came to 14600 nM. The GI50 in [6] (setting [17]) is 14000 nM.
Take `COc1ccc2c3c(c4cc(OC)c(OC)cc4c2c1)C[C@H]1CN(CC2CC2)CCN1C3` [Compound 8g, (S)-13-aza-13N-cyclopropylmethyl-cryptopleurine]: the melting point was in the range of 160 to 162 °C. For the same compound, the GI50 in data set [1] (setting [9]) is 790 nM. Moreover, in data set [2] (setting [10]), the 50% growth inhibitory concentration (GI50) came out at 2940 nM. Also, the GI50 in data set [3] (setting [11]) stood at 6570 nM. In addition, the GI50 in data set [6] (setting [17]) came out at 250 nM.
For `COc1ccc2c3c(c4cc(OC)c(OC)cc4c2c1)C[C@H]1CN(C2CC2)CCN1C3` [Compound 8h, (S)-13-aza-13N-cyclopropyl-cryptopleurine], in that order: 115 to 117 °C, 23200 nM, 17900 nM, 23400 nM and 13000 nM.
For `COc1ccc2c3c(c4cc(OC)c(OC)cc4c2c1)C[C@H]1CN(C(=O)c2ccccc2)CCN1C3` [Compound 8i, (S)-13-aza-13N-benzoyl-cryptopleurine], in that order: 203 °C (dec.), 15000 nM, 15700 nM, 20100 nM and 18100 nM.
With `COc1ccc2c3c(c4cc(OC)c(OC)cc4c2c1)C[C@H]1CN(CCO)CCN1C3` [Compound 8j, (S)-13-aza-13N-hydroxylethyl-cryptopleurine], the melting point was 266 °C (dec.). The 50% growth inhibitory concentration (GI50) in [1] (setting [9]) amounted to 14100 nM. The GI50 in [2] (setting [10]) was 12600 nM. Also, in data set [3] (setting [11]), the GI50 is 8620 nM. Moreover, the GI50 in data set [6] (setting [17]) turned out to be 7410 nM.
In the case of `COc1ccc2c3c(c4cc(OC)c(OC)cc4c2c1)C[C@H]1C[C@@H](O)CN1C3` [Compound 9a, (12R,13aS)-12-hydroxyl-antofine], the GI50 in data set [1] (setting [14]) was 610 nM; in data set [2] (setting [15]) it was 700 nM; in data set [3] (setting [16]) it was 780 nM; in data set [4] (KBVIN, Example 3, Table 1), 640 nM. In addition, the “range of cytotoxicity / anticancer activity in words” value in data set [5] is given as “middle nM to low μM range”. The “activity of 12R isomer compared with 12S isomer (9b)” value in data set [5] (Example 3) is 3 fold.
In the case of `COc1ccc2c3c(c4cc(OC)c(OC)cc4c2c1)C[C@H]1C[C@H](O)CN1C3` [Compound 9b, (12S,13aS)-12-hydroxyl-antofine], the concentration for 50% growth inhibition (GI50) is 2270 nM in [1] (setting [14]); 1800 nM in [2] (setting [15]); 1810 nM in [3] (setting [16]); 2210 nM in data set [4] (KBVIN, Example 3, Table 1). For the same compound, the “range of cytotoxicity / anticancer activity in words” value in data set [5] is “middle nM to low μM range”.
As to `COc1ccc2c3c(c4cc(OC)c(OC)cc4c2c1)C[C@H]1CCN(CCO)CN1C3` [Compound 11a, (S)-12-aza-12N-hydroxylethyl-cryptopleurine], the melting point lay within 138 to 140 °C. Further, the 50% growth inhibitory concentration (GI50) in [1] (setting [18]) was 5680 nM. The GI50 in data set [2] (setting [19]) is 1990 nM. Also, in data set [3] (setting [20]), the GI50 was 1590 nM. Further, the concentration for 50% growth inhibition (GI50) in data set [6] (setting [21]) is 10600 nM.
Regarding `COc1ccc2c3c(c4cc(OC)c(OC)cc4c2c1)C[C@H]1CCN(CC(C)C)CN1C3` [Compound 11c, (S)-12-aza-12N-isobutyl-cryptopleurine], the melting point was in the range of 177 to 179 °C. In addition, the GI50 in [1] (setting [13]) was determined as 1520 nM. For the same compound, the GI50 in data set [2] (setting [19]) stood at 2300 nM. Also, in data set [3] (setting [13]), the GI50 was 5060 nM. Further, the GI50 in data set [6] (setting [21]) was found to be 1360 nM.
`COc1ccc2c3c(c4cc(OC)c(OC)cc4c2c1)C[C@H]1CCN(Cc2ccccc2)CN1C3` [Compound 11d, (S)-12-aza-12N-benzyl-cryptopleurine]: the melting point was in the range of 211 to 213 °C. Besides, the GI50 in [1] (setting [18]) turned out to be 29900 nM. Moreover, the 50% growth inhibitory concentration (GI50) in data set [2] (setting [19]) was greater than 40000 nM. In data set [3] (setting [20]), the GI50 is greater than 40000 nM. The GI50 in data set [6] (setting [21]) worked out at 21300 nM.
For `COc1ccc2c3c(c4cc(OC)c(OC)cc4c2c1)C[C@H]1CCOCN1C3` [Compound 13, (S)-12-oxa-cryptopleurine], the 50% growth inhibitory concentration (GI50) is 1790 nM in [1] (Homo sapiens, A549, Example 2, Table 5); 1820 nM in data set [2] (Homo sapiens, DU-145, Example 2, Table 5); 1660 nM in data set [3] (Homo sapiens, KB, Example 2, Table 5); 1450 nM in data set [6] (HCT-8, Example 2, Table 5); 1000 to 2000 nM in [7].
With `COc1ccc2c3c(c4cc(OC)c(OC)cc4c2c1)C[C@H]1C[C@@H](O)CCN1C3` [Compound 13a, (13S,14aS)-13-hydroxyl-eryptopleurine], the GI50 came to 72 nM in data set [1] (setting [14]); 59 nM in data set [2] (setting [15]); 43 nM in data set [3] (setting [16]); 78 nM in data set [4] (KBVIN, Example 3, Table 1); 295 nM in data set [8]. For the same compound, the “range of cytotoxicity / anticancer activity in words” value in data set [5] was “low nM range”.
With `COc1ccc2c3c(c4cc(OC)c(OC)cc4c2c1)C[C@H]1C[C@H](O)CCN1C3` [Compound 13b, (13R,14aS)-13-hydroxyl-cryptopleurine], the GI50 was 22 nM in data set [1] (setting [14]); 11 nM in data set [2] (setting [15]); 23 nM in data set [3] (setting [16]); 25 nM in data set [4] (KBVIN, Example 3, Table 1); 72 nM in data set [8]. Also, in [5], the “range of cytotoxicity / anticancer activity in words” value is recorded as “low nM range”.
In the case of `COc1ccc2c3c(c4cc(OC)c(OC)cc4c2c1)C[C@H]1CCC(=O)CN1C3` [Compound 18, (R)-12-oxo-cryptopleurine], the GI50 in data set [1] (setting [14]) worked out at 910 nM; in [2] (setting [15]) it was 1700 nM; in data set [3] (setting [16]), 734 nM; in data set [4] (KBVIN, Example 3, Table 1), 1480 nM; in data set [8], 3340 nM.
Turning to `COc1ccc2c3c(c4cc(OC)c(OC)cc4c2c1)C[C@H]1CC[C@@H](O)CN1C3` [Compound 19a, (12R,14aR)-12-hydroxyl-cryptopleurine], the concentration for 50% growth inhibition (GI50) came out at 82 nM in [1] (setting [14]); 66 nM in data set [2] (setting [15]); 33 nM in data set [3] (setting [16]); 45 nM in data set [4] (KBVIN, Example 3, Table 1); 348 nM in data set [8]. For the same compound, the “range of cytotoxicity / anticancer activity in words” value in data set [5] is “lower nM range”.
`COc1ccc2c3c(c4cc(OC)c(OC)cc4c2c1)C[C@H]1CC[C@H](O)CN1C3` [Compound 19b, (12S,14aR)-12-hydroxyl-cryptopleurine]: the GI50 was 2510 nM in [1] (setting [14]); 2250 nM in [2] (setting [15]); 2250 nM in [3] (setting [16]); 3070 nM in data set [4] (KBVIN, Example 3, Table 1); 6440 nM in data set [8]. Further, the “range of cytotoxicity / anticancer activity in words” value in data set [5] is “low μM range”.
